In US20240025858A1, “CANNABINOID DERIVATIVES AS […] ACTIVE COMPOUNDS AND METHOD OF PREPARATION THEREOF” (GW Research Limited, priority 2020, published 2024):

What was measured:
[1] = test system: mouse model of generalised seizure; test: MEST (maximal electroshock seizure threshold) test in the mouse; conditions: for % change from vehicle: change in CC50
Method: The efficacy of the cannabinoid derivative of 1 was tested in a mouse model of generalised seizure, the maximal electroshock seizure threshold (MEST) test.
The protocol according to Example 2 was followed, with the current lowered or raised in intervals of 5 mA instead of log scale intervals.

[2] = test system: mouse model of generalised seizure; test: mini-MEST (maximal electroshock seizure threshold test, minimal sample sizes) in the mouse; conditions: for change in vivo at 50 mg/kg / change in vivo at 5 mg/kg: Mus musculus, ip, change in CC50; for change in vivo at 50 mg/kg: 0.5 h, read-out: % change from vehicle, 50 mg/kg i.p., 30 min post dose; for change in vivo at 5 mg/kg: 0.25 h, read-out: % change from vehicle, 5 mg/kg i.p., 15 min post dose
Method: In the MEST test the ability of a drug to alter the seizure threshold current required to induce hind limb tonic extensor convulsions is measured according to an “up and down” method of shock titration (Kimball et al., 1957).
The ability of a test compound to alter the stimulus intensity, expressed as current (mA), required to induce the presence of tonic hind limb extensor convulsions, is assessed in the MEST.
Naïve mice were acclimatised to the procedure room in their home cages for up to 7 days, with food and water available ad libitum.
All animals were weighed at the beginning of the study and randomly assigned to treatment groups based on a mean distribution of body weight across groups.
The first animal within a treatment group was given a shock at the expected or estimated CC50 current. For subsequent animals, the current was lowered or raised depending on the convulsions outcome from the preceding animal in log scale intervals.
Data generated from each treatment group were used to calculate the CC50 ±SEM values for the treatment group.
The test compounds used were 1, 2, 3, 4 and 5. Test compounds were administered at 5-50 mg/kg (i.p.) in a 1:2:17 ethanol:solutol:saline formulation.
The data for each treatment group were recorded as the number of +'s and 0's at each current level employed and this information is then used to calculate the CC50 value (current required for 50% of the animals to show seizure behaviour) ±standard error.
Test compound effects were also calculated as percentage change in CC50 from the vehicle control group.
The test compounds used were 12, 42 and 43. Test compounds were administered at 5-50 mg/kg (i.p.) in a 1:2:17 ethanol:solutol:saline formulation.
The test compounds used were 6, 13, 22, 26, 28, 33, 38 and 46. Test compounds were administered at 5-50 mg/kg (i.p.) in a 1:2:17 ethanol:solutol:saline formulation.
The test compound used was 36. Test compound was administered at 5 and 50 mg/kg (i.p.) in a 1:2:17 ethanol:solutol:saline formulation.

[3] = 5 mg/kg i.p., test 15 min post dose
[4] = 50 mg/kg i.p., test 30 min post dose

SMILES | CC50 +/− SEM [2, 4] [mA] | change in vivo at 50 mg/kg [2] [%] | CC50 +/− SEM [2, 3] [mA] | change in vivo at 5 mg/kg [2] [%] | also measured
C=C(C)[C@@H]1CCC(C)=C[C@H]1c1c(O)cc(-c2cnn(CC(C)(C)O)c2)cc1O [Compound 1, (1′R,2′R)-4-(1-(2-Hydroxy-2-methylpropyl)-1H-pyrazol-4-yl)-5′-methyl-2′-(prop-1-en-2-yl)-1′,2′,3′,4′-tetrahydro-[1,1′-biphenyl]-2,6-diol] | 119.5 | 388 | – | – | % change from vehicle ([1]; 1 mg/kg i.p., 15 min post dose): 10%; CC50 +/− SEM ([1]; 1 mg/kg i.p., test 15 min post dose): 28.5 mA; % change from vehicle ([1]; 5 mg/kg i.p., 15 min post dose): 21%; CC50 +/− SEM [1, 3]: 31.5 mA; % change from vehicle ([1]; 50 mg/kg i.p., 30 min post dose): 213%; CC50 +/− SEM [1, 4]: 81.5 mA
C=C(C)[C@@H]1CCC(C)=C[C@H]1c1c(O)cc(-c2cnn(CCO)c2)cc1O [Compound 2, (1′R,2′R)-4-(1-(2-Hydroxyethyl)-1H-pyrazol-4-yl)-5′-methyl-2′-(prop-1-en-2-yl)-1′,2′,3′,4′-tetrahydro-[1,1′-biphenyl]-2,6-diol] | <35.0 | < 40 | 32.5 | 30 | –
C=C(C)[C@@H]1CCC(C)=C[C@H]1c1c(O)cc(-c2cn(C)nc2C)cc1O [Compound 3, (1′R,2′R)-4-(1,3-Dimethyl-1H-pyrazol-4-yl)-5′-methyl-2′-(prop-1-en-2-yl)-1′,2′,3′,4′-tetrahydro-[1,1′-biphenyl]-2,6-diol] | 62.5 | 150 | 27.5 | 10 | –
C=C(C)[C@@H]1CCC(C)=C[C@H]1c1c(O)cc(-c2cn(C)nn2)cc1O [Compound 4, (1′R,2′R)-5′-Methyl-4-(1-methyl-1H-1,2,3-triazol-4-yl)-2′-(prop-1-en-2-yl)-1′,2′,3′,4′-tetrahydro-[1, 1′-biphenyl]-2,6-diol] | 70.5 | 213 | 28.3 | 26 | –
C=C(C)[C@@H]1CCC(C)=C[C@H]1c1c(O)cc(-c2cnn(CCO)c2C)cc1O [Compound 5, (1′R,2′R)-4-(1-(2-Hydroxyethyl)-5-methyl-1H-pyrazol-4-yl)-5′-methyl-2′-(prop-1-en-2-yl)-1′,2′,3′,4′-tetrahydro-[1,1′-biphenyl]-2,6-diol] | 60.5 | 169 | – | – | –
C=C(C)[C@@H]1CCC(C)=C[C@H]1c1c(O)cc(-c2cnn(CCN(C)C)c2)cc1O [Compound 6, (1′R,2′R)-4-(1-(2-(Dimethylamino)ethyl)-1H-pyrazol-4-yl)-5′-methyl-2′-(prop-1-en-2-yl)-1′,2′,3′,4′-tetrahydro-[1,1′-biphenyl]-2,6-diol] | <43 | < 76 | – | – | –
C=C(C)[C@@H]1CCC(C)=C[C@H]1c1c(O)cc(-c2ccc(OC)nc2)cc1O [Compound 12, (1′R,2′R)-4-(6-Methoxypyridin-3-yl)-5′-methyl-2′-(prop-1-en-2-yl)-1′,2′,3′,4′-tetrahydro-[1,1′-biphenyl]-2,6-diol] | >131 | > 394 | 25.0 | -6 | convulsions observed ([2]; 50 mg/kg, CC50 not reached): no animals had any convulsions
C=C(C)[C@@H]1CCC(C)=C[C@H]1c1c(O)cc(-c2cnn(CCN3CCOCC3)c2)cc1O [Compound 13, (1′R,2′R)-5′-Methyl-4-(1-(2-morpholinoethyl)-1H-pyrazol-4-yl)-2′-(prop-1-en-2-yl)-1′,2′,3′,4′-tetrahydro-[1,1′-biphenyl]-2,6-diol] | 37.2 | 58 | 25.0 | 6 | –
C=C(C)[C@@H]1CCC(C)=C[C@H]1c1c(O)cc(-c2cnn(CC(C)O)c2)cc1O (stereo partly drawn) [Compound 22, (1′R,2′R)-4-(1-(2-Hydroxypropyl)-1H-pyrazol-4-yl)-5′-methyl-2′-(prop-1-en-2-yl)-1′,2′,3′,4′-tetrahydro-[1,1′-biphenyl]-2,6-diol] | 66.0 | 149 | 33.0 | 25 | –
C=C(C)[C@@H]1CCC(C)=C[C@H]1c1c(O)cc(-n2cnc(C)n2)cc1O [Compound 26, (1′R,2′R)-5′-Methyl-4-(3-methyl-1H-1,2,4-triazol-1-yl)-2′-(prop-1-en-2-yl)-1′,2′,3′,4′-tetrahydro-[1,1′-biphenyl]-2,6-diol] | 75.0 | 233 | – | – | –
C=C(C)[C@@H]1CCC(C)=C[C@H]1c1c(O)cc(-c2cn(C)cn2)cc1O [Compound 28, (1′R,2′R)-5′-Methyl-4-(1-methyl-1H-imidazol-4-yl)-2′-(prop-1-en-2-yl)-1′,2′,3′,4′-tetrahydro-[1,1′-biphenyl]-2,6-diol] | 35.5 | 58 | 25.0 | 11 | –
C=C(C)[C@@H]1CCC(C)=C[C@H]1c1c(O)cc(-c2ncn(C)n2)cc1O [Compound 33, (1′R,2′R)-5′-Methyl-4-(1-methyl-1H-1,2,4-triazol-3-yl)-2′-(prop-1-en-2-yl)-1′,2′,3′,4′-tetrahydro-[1, 1′-biphenyl]-2,6-diol] | 53.5 | 138 | – | – | –
CC1=C[C@@H](c2c(O)cc(-c3cnn(C)c3)cc2O)[C@H](C(C)C)CC1 [Compound 36, (1′S,2′S)-2′-Isopropyl-5′-methyl-4-(1-methyl-1H-pyrazol-4-yl)-1′,2′,3′,4′-tetrahydro-[1,1′-biphenyl]-2,6-diol] | 70.5 | 176 | 29.0 | 14 | CC50 value compared to vehicle ([2]; 5 and 50 mg/kg i.p., between 15 and 30 minutes before the test): statistically significant
C=C(C)[C@@H]1CCC(C)=C[C@H]1c1c(O)cc(-c2cnn(C3COC3)c2)cc1O [Compound 38, (1′R,2′R)-5′-Methyl-4-(1-(oxetan-3-yl)-1H-pyrazol-4-yl)-2′-(prop-1-en-2-yl)-11,2′,3′,4′-tetrahydro-[1, 1′-biphenyl]-2,6-diol] | 79.5 | 200 | – | – | –
C=C(C)[C@@H]1CCC(C)=C[C@H]1c1c(O)cc(-c2ccn(C)c(=O)c2)cc1O [Compound 42, 4-((1′R,2′R)-2,6-dihydroxy-5′-methyl-2′-(prop-1-en-2-yl)-1′,2′,3′,4′-tetrahydro-[1,1′-biphenyl]-4-yl)-1-methylpyridin-2(1H)-one] | 67.5 | 132 | – | – | –
C=C(C)[C@@H]1CCC(C)=C[C@H]1c1c(O)cc(-c2cccnc2OC)cc1O [Compound 43, (1′R,2′R)-4-(2-methoxypyridin-3-yl)-5′-methyl-2′-(prop-1-en-2-yl)-1′,2′,3′,4′-tetrahydro-[1,1′-biphenyl]-2,6-diol] | 58.2 | 96 | – | – | –
C=C(C)[C@@H]1CCC(C)=C[C@H]1c1c(O)cc(N(C)c2cccnc2)cc1O [Compound 46, (1′R,2′R)-5′-Methyl-4-(methyl(pyridin-3-yl)amino)-2′-(prop-1-en-2-yl)-1′,2′,3′,4′-tetrahydro-[1, 1′-biphenyl]-2,6-diol] | 61.5 | 132 | – | – | –
CN1C(=O)CN=C(c2ccccc2)c2cc(Cl)ccc21 [Diazepam, diazepam, reference compound] | – | – | – | – | % change from vehicle ([1]; diazepam 2.5 mg/kg i.p., 30 min post dose): 224%
